Measured values taken from US20250313528A1, “NOVEL COMPOUND AND PHARMACEUTICAL COMPOSITION FOR PREVENTING OR TREATING PULMONARY FIBROSIS COMPRISING SAME AS ACTIVE INGREDIENT” (GIL MEDICAL CENTER, priority 2022, published 2025).

How the values were obtained:
Type in all cases: cell-based, human
MRC-5 cells [1] = assay: Microscopic examination of cell morphology and proliferation, TGF-β1-induced MRC-5; details: MRC-5, TGF-β1-induced, microscope, FIG. 4a
Method: (§1) The effects of the two candidate compounds of sulforaphane prodrugs on cytotoxicity and morphological changes in normal lung fibroblast MRC-5 cells and diseased lung fibroblast DHLF-IPF cells were examined. The diseased lung fibroblast DHLF-IPF cell line was purchased from Lonza and cultured in FGM™-2 Fibroblast Growth Medium-2 BulletKit™ at 37° C. in a 5% CO2 incubator.
(§2) Additionally, the changes in cell morphology of two lung fibroblasts induced by TGF-β1 according to the treatments with Compound 1 and Compound 2 were examined with the naked eye through a microscope.

FN, COL1A1, and α-SMA = assay: qRT-PCR of fibrosis-related genes in TGF-β1-induced MRC-5 cells; details: MRC-5, 10 μM pretreatment 1 hour, TGF-β1 1 ng/ml 48 hours, FIG. 4c/4d
Method: MRC-5 and DHLF-IPF cells were each cultured in growth medium, and the medium was removed. […] The medium was then removed, and the cells were washed once with PBS. Intracellular total RNA was extracted from the cultured cells using TRIzol reagent (TaKaRa Bio Inc., Japan) for gene expression analysis. 1 mL of TRIzol reagent was added to lyse the cells and denature the tissue. The lysate was transferred to each 1.5 mL tube, and 200 μL of chloroform was added thereto, followed by vortexing for 20 seconds to ensure complete mixing. After incubating at room temperature for 15 minutes, the mixture was centrifuged at 14,000 rpm for 20 minutes to obtain the supernatant. After adding an equal volume of isopropyl alcohol, the tubes were inverted and incubated at room temperature for 10 minutes. The sample was centrifuged at 14,000 rpm for 15 minutes to obtain an RNA pellet, which was washed by centrifugation with 70% ethanol for use on RNA at 14,000 rpm for 5 minutes, and dried for 5 minutes. The dried RNA sample was added with 20 μL of distilled water treated with 0.1% diethyl pyrocarbonate (DEPC) to dissolve the pallet and the resultant was used as a sample for cDNA synthesis. 1 μL of the same was used to measure the RNA concentration and purity at O.D. 260/280 nm using a Nanodrop.
Single-stranded cDNA synthesis was performed by mixing 1 μg of the extracted total RNA with 1 μL of oligo-d(T) primer ([…]) and 10 mM dNTP (TaKaRa Bio Inc., Japan), reacting at 65° C. for 5 minutes, followed by rapid cooling. To this template, 4 μL of 5×RT buffer, 0.5 μL of RNA inhibitor, and 100 units of RTase (TaKaRa Bio Inc., Japan) were added, and the total volume was adjusted to 20 μL using DEPC-treated distilled water. […]
Each gene expression level was measured using real-time PCR. […] The specificity of the amplified product was confirmed through melting curve analysis, and the target genes were quantified and compared using GAPDH as a control gene.

DHLF-IPF cells = assay: Microscopic examination of cell morphology and proliferation, TGF-β1-induced DHLF-IPF; details: microscope, FIG. 4a
Method: as §1, §2

fibronectin and α-SMA = assay: Western blotting of fibrosis-related proteins in TGF-β1-induced MRC-5 cells; details: for expression of fibronectin and α-SMA by concentration: MRC-5 + TGF-β1, Compound 1 at 5, 10, 20 μM, Compound 2 at 2.5, 5, 10 μM, FIG. 3; for expression levels of fibronectin and α-SMA protein: MRC-5, TGF-β1 1 ng/ml, 10 μM, FIG. 4b; for expression levels of fibronectin and α-SMA: MRC-5 induced by TGF-β1, screen of sulforaphane compounds, FIG. 2
Method: Since the overexpression of extracellular matrix components such as fibronectin and α-SMA serves as an indicator of fibrotic changes in tissues, MRC-5 cells induced to undergo fibrosis by TGF-β1 were treated with each compound at different concentrations to compare the expression levels of fibronectin and α-SMA.
Specifically, to extract fibronectin and α-SMA proteins, the cells were washed once with cold PBS and then RIPA buffer (150 mM NaCl, 0.5% Triton X-100, 50 mM Tris-HCl, pH 7.4, 25 mM NaF, 20 mM EGTA), which was added with a protease inhibitor cocktail, was added thereto to lyse the cells. Then, the proteins were quantified using a BCA protein assay kit. All protein samples were subjected to electrophoresis at 10 μg on 8% to 10% PAGE gels and then transferred to 0.2 μm PVDF membranes (EMD Millipore, MA, USA). The membranes to which the protein was transferred were blocked with 5% BSA or 5% skim milk for 1 hour, and then primary antibodies were added thereto and incubated overnight at 4° C. The following day, the membranes were washed three times with PBST, and then HRP-conjugated secondary antibodies were added and reacted at room temperature for 1 hour. The PVDF membranes prepared through such procedures were smeared with ECL (Luminata™ Crescendo, EMD Millipore) and exposed to a fluorescence reader to confirm the level of protein expression.
The specific experimental methods are the same as in Example 2, and sulforaphane was treated at a concentration of 20 μM, Compound 1 at 5 μM, 10 μM, and 20 μM, and Compound 2 at 2.5 μM, 5 μM, and 10 μM, respectively.
To compare the changes in fibrosis-related protein expression by treating normal MRC-5 and diseased DHLF-IPF cell lines induced with pulmonary fibrosis by TGF-β1 with SFN and the two candidate compounds, Western blotting was performed.
The specific experimental methods are the same as in Example 2. TGF-β1 was treated at 1 ng/ml to induce fibrosis, and sulforaphane and the two compounds each were treated at a concentration of 10 μM.

MRC-5 cells [2] = assay: Transwell migration assay, MRC-5; details: MRC-5, TGF-β1 treatment, 24 hours, FIG. 5
Method: In accordance with the characteristics of myofibroblasts, in which the increased expression of proteins related to fibrogenesis leads to an increase of cell migration and invasion, migration and wound healing assays were conducted to examine the effects of the final selected Compound 1 and Compound 2 on cell migration using normal and diseased fibroblasts.
A 24-well culture plate was prepared with 500 μL of medium including FBS, and an 8 μm pore size insert was placed on top. Inside the insert, 300 μL of medium without FBS was added, and MRC-5 and DHLF-IPF cells were seeded at a density of 1×10^5 cells. […] After incubation, the medium inside the 8 μm pore polycarbonate membrane insert was carefully removed, washed with DPBS, and fixed in methanol for 5 minutes. The cells were then stained with Mayer's Haematoxylin for 8 minutes after washing twice with triple-distilled water. The stained cells were washed with DPBS, gently wiped with a cotton swab inside the insert, and the membrane was cut out and mounted on a slide. The migrated cells were counted under a microscope at 200× magnification.

Compound | cell morphology (MRC-5 cells [1]) | inhibition of cell proliferation compared to sulforaphane-treated group (MRC-5 cells [1]) | gene expression levels of FN, COL1A1, and α-SMA (FN, COL1A1, and α-SMA) | cell morphology (DHLF-IPF cells) | inhibition of cell proliferation compared to sulforaphane-treated group (DHLF-IPF cells) | expression of fibronectin and α-SMA by concentration (fibronectin and α-SMA) | expression levels of fibronectin and α-SMA protein (fibronectin and α-SMA) | expression levels of fibronectin and α-SMA (fibronectin and α-SMA) | cell migration (transwell) (MRC-5 cells [2])
CCOC(=O)C(CSC(=S)NCCCC[S+](C)[O-])NC(C)=O (stereo not drawn) [Compound 1] | thin and elongated shape, which is similar to that of the control group | inhibition of cell proliferation was more significant | significantly reducing the expression levels compared to sulforaphane | thin and elongated shape, which is similar to that of the control group | inhibition of cell proliferation was more significant | decreased in a concentration-dependent manner | significantly reducing the expression levels compared to sulforaphane | significantly decreased | significantly inhibited in a dose-dependent manner
C=CCOC(=O)C(CSC(=S)NCCCC[S+](C)[O-])NC(C)=O (stereo not drawn) [Compound 2] | thin and elongated shape, which is similar to that of the control group | inhibition of cell proliferation was more significant | significantly reducing the expression levels compared to sulforaphane | thin and elongated shape, which is similar to that of the control group | inhibition of cell proliferation was more significant | decreased in a concentration-dependent manner | significantly reducing the expression levels compared to sulforaphane | significantly decreased | significantly inhibited in a dose-dependent manner
